Test results from US5776944A, “7-(4-aminomethyl-3-methyloxyiminopyrroplidin-1-yl)-1-cyclopropyl-6-flu oro-4-oxo-1,4-dihydro-1,8-naphthyridine-3-carboxylic acid and the process for the preparation thereof” (LG Chemical Ltd., priority 1994, dated 1998).
≈ marks a conversion by molar mass, not a printed value. Like-named read-outs stand apart in the source and are kept apart here.

Key:
[1] = Moisture content according to hydration number; assay type: physicochemical; details: actual moisture content, methanesulfonate hydrates
Experimental: The moisture content of the hydrate varies with the hydration number (n) of the hydrated molecule. Since the molecular weight of 7-(4-amino-methyl-3-methyloxylminopyrrolidin-1-yl)-1-cyclopropyl-6-fluoro- 4-oxo-1,4-dihydro-1,8-naphthyridine-3-carboxylic acid methanesulfonate is 485.5, the moisture content of the hydrate for n equal to 1, 1.5, 2, 2.5, 3, 3.5 or 4 is calculated to be 3.6%, […], 6.9%, 8.5%, 10.0%, 11.5% or 12.9%, respectively. However, the actual moisture content may differ from the calculated moisture content depending on differences in recrystallization conditions, drying conditions, etc.

[2] = phosphate buffered solution
[3] = Chemical stability under heating; details: for thermal stability: hydrate
Experimental: The anhydride and each of the hydrates was introduced into a glass vial and maintained at 70° C.

[4] = Equilibrium moisture content determination of hydrates; assay type: physicochemical
Experimental: Six saturated aqueous salt solutions were introduced into each desiccator to control the inner relative humidity to a specific value as represented in the following Table 28. Then, equilibrium moisture contents of 3 hydrate and 1.5 hydrate prepared in Examples 205 and 206, respectively, were determined at several relative humidities.
Specifically, 100 mg of the sample was spread on a preweighed Petri dish and the total weight was accurately measured, then three of the sample were placed in each desiccator of Table 28. The desiccators were allowed to stand at normal temperature for 7 days and then the sample was taken to be weighed. After 13 days had passed, one of the three samples inside each desiccator was taken and the moisture content of each was measured by the thermogravimetric analysis described in Test Example 2. Equilibrium moisture content at each relative humidity is represented in FIG. 3 (3 hydrate), and FIG. 4 (1.5 hydrate). […] Both hydrates are stable since they keep a constant equilibrium moisture content regardless of the relative humidity change.

[5] = tested on: Klebsiella aerogenes 1976E; test: In vitro antibacterial activity (MIC, agar dilution), Biological Example 1; assay type: cell-based; details: 18 h, Table 25, read-out: Minimum Inhibitory Concentration
[6] = tested on: Escherichia coli TEM3 3455E; test: microbe, parasite or virus in culture; assay type: cell-based; details: TEM33455E, 18 h, read-out: Minimum Inhibitory Concentration
[7] = tested on: Escherichia coli TEM9 2639E; test: microbe, parasite or virus in culture; assay type: cell-based; details: TEM92639E, 18 h, read-out: Minimum Inhibitory Concentration
[8] = tested on: Escherichia coli 851E; test: In vitro antibacterial activity (MIC, agar dilution), Biological Example 1; assay type: cell-based; details: 18 h, Table 25, read-out: Minimum Inhibitory Concentration
[9] = tested on: Enterobacter cloacae P99; test: microbe, parasite or virus in culture; assay type: cell-based; details: P99, 18 h, read-out: Minimum Inhibitory Concentration
[10] = tested on: Staphylococcus aureus 77; test: In vitro antibacterial activity (MIC, agar dilution), Biological Example 1; assay type: cell-based; details: 18 h; Staphylococcus aureus 77, Table 25; read-out: Minimum Inhibitory Concentration
[11] = tested on: Bacillus subtilis 6633; test: as above; assay type: cell-based; details: 18 h; Bacillus subtilis 6633, Table 25; read-out: Minimum Inhibitory Concentration
[12] = tested on: Staphylococcus aureus 6538p; test: as above; assay type: cell-based; details: 18 h, Table 25, read-out: Minimum Inhibitory Concentration
[13] = tested on: Staphylococcus aureus 241; test: as above; assay type: cell-based; details: 18 h; Staphylococcus aureus 241, Table 25; read-out: Minimum Inhibitory Concentration
[14] = tested on: Escherichia coli TEM5 3739E; test: microbe, parasite or virus in culture; assay type: cell-based; details: TEM53739E, 18 h, read-out: Minimum Inhibitory Concentration
[15] = tested on: Pseudomonas aeruginosa 10145; test: In vitro antibacterial activity (MIC, agar dilution), Biological Example 1; assay type: cell-based; details: 18 h; Pseudomonas aeruginosa 10145, Table 25; read-out: Minimum Inhibitory Concentration
[16] = tested on: Salmonella typimurium 14028; test: as above; assay type: cell-based; details: 18 h; Salmonella typimurium 14028, Table 25; read-out: Minimum Inhibitory Concentration
[17] = tested on: Staphylococcus epidermidis 887E; test: as above; assay type: cell-based; details: 18 h, Table 25, read-out: Minimum Inhibitory Concentration
[18] = tested on: Acinetobacter calcoaceticus 15473; test: as above; assay type: cell-based; details: 18 h; Acinetobacter calcoaceticus 15473, Table 25; read-out: Minimum Inhibitory Concentration
[19] = tested on: Pseudomonas aeruginosa 1912E; test: as above; assay type: cell-based; details: 18 h; Pseudomonas aeruginosa 1912E, Table 25; read-out: Minimum Inhibitory Concentration
[20] = tested on: Escherichia coli 3190Y; test: as above; assay type: cell-based; details: 18 h, Table 25, read-out: Minimum Inhibitory Concentration
[21] = Pharmacokinetic test; assay type: in vivo; details: rat, blood, 20 mg/kg, SD rats (male); for Cmax: read-out: Cmax (maximum blood concentration); for half-life: read-out: T1/2 (biological half life) (converted); for Tmax: read-out: Tmax (time showing maximum blood concentration); for bioavailability: printed in the IV line, read-out: F (bioavailability)
[22] = tested on: Staphylococcus epidermidis 178; test: In vitro antibacterial activity (MIC, agar dilution), Biological Example 1; assay type: cell-based; details: 18 h; Staphylococcus epidermidis 178, Table 25; read-out: Minimum Inhibitory Concentration
[23] = tested on: Enterobacter cloacae 1194E; test: microbe, parasite or virus in culture; assay type: cell-based; details: 18 h, read-out: Minimum Inhibitory Concentration
[24] = tested on: Klebsiella aerogenes 1082E; test: In vitro antibacterial activity (MIC, agar dilution), Biological Example 1; assay type: cell-based; details: 18 h, Table 25, read-out: Minimum Inhibitory Concentration
[25] = tested on: Citrobacter diversus 2046E; test: as above; assay type: cell-based; details: Citrobacter koseri, 18 h, Table 25, read-out: Minimum Inhibitory Concentration
[26] = tested on: Staphylococcus aureus giorgio; test: as above; assay type: cell-based; details: 18 h, Table 25, read-out: Minimum Inhibitory Concentration
[27] = tested on: Streptococcus faecalis 29212; test: as above; assay type: cell-based; details: Enterococcus faecalis, 18 h; Streptococcus faecalis 29212, Table 25; read-out: Minimum Inhibitory Concentration
[28] = tested on: Escherichia coli 10536; test: as above; assay type: cell-based; details: 18 h; Escherichia coli 10536, Table 25; read-out: Minimum Inhibitory Concentration
[29] = tested on: Micrococcus luteus 9341; test: as above; assay type: cell-based; details: 18 h; Micrococcus luteus 9341, Table 25; read-out: Minimum Inhibitory Concentration

Structure (SMILES)	MIC [5]	MIC [6]	MIC [7]	MIC [8]	MIC [9]	MIC [10]	MIC [11]	MIC [12]	MIC [13]	MIC [14]	MIC [15]	MIC [16]	MIC [17]	MIC [18]	MIC [19]	MIC [20]	MIC [22]	MIC [23]	MIC [24]	MIC [25]	other results
CON=C1CN(c2nc3c(cc2F)c(=O)c(C(=O)O)cn3C2CC2)CC1CN (stereo not shown) [4 hydrate, 7-(4-aminomethyl-3-methyloxylminopyrrolidin-1-yl)-1-cyclopropyl-6-fluoro-4-oxo-1,4-dihydro-1,8-naphthyridine-3-carboxylic acid methanesulfonate]	–	–	–	–	–	–	–	–	–	–	–	–	–	–	–	–	–	–	–	–	Moisture Content [1]: 12-13%
CON=C1CN(c2nc3c(cc2F)c(=O)c(C(=O)O)cn3C2CC2)CC1CN (stereo not shown) [Sulfurate]	–	–	–	–	–	–	–	–	–	–	–	–	–	–	–	–	–	–	–	–	Water Solubility ([2]; pH 2): 8.9; Water Solubility ([2]; pH 7): 11.4
CON=C1CN(c2nc3c(cc2F)c(=O)c(C(=O)O)cn3C2CC2)CC1CN (stereo not shown) [1.5 hydrate, 7-(4-aminomethyl-3-methyloxyiminopyrrolidin-1-yl)-1-cyclopropyl-6-fluoro-4-oxo-1,4-dihydro-1,8-naphthyridine-3-carboxylic acid methanesulfonate·1.5 hydrate]	–	–	–	–	–	–	–	–	–	–	–	–	–	–	–	–	–	–	–	–	thermal stability compared with the anhydride ([3]; 70° C., Table 29): the same degree of thermal stability as the anhydride; thermal stability ([3]; 20160 min): 95.80%; thermal stability ([3]; 40320 min): 96.17%; thermal stability [3]: 100%; remaining at 168 h ([3]; thermal stability, 1 week, 70° C.): 97.2%; remaining at 504 h ([3]; thermal stability, 3 weeks, 70° C.): 97.2%; Moisture Content ([1]; hydrate): 4-6%; stability of hydrate towards relative humidity change [4]: stable; equilibrium moisture content ([4]; relative humidity 23 to 64%): around 5%
CON=C1CN(c2c(F)cc3c(=O)c(C(=O)O)cn(C4CC4)c3c2F)CC1CN (stereo not shown) [Example 177]	0.13 µg/mL (≈ 0.32 µM)	0.25 µg/mL (≈ 0.615 µM)	0.063 µg/mL (≈ 0.155 µM)	0.031 µg/mL (≈ 0.0763 µM)	0.016 µg/mL (≈ 0.0394 µM)	0.016 µg/mL (≈ 0.0394 µM)	≤ 0.008 µg/mL	≤ 0.008 µg/mL	0.5 µg/mL (≈ 1.23 µM)	0.13 µg/mL (≈ 0.32 µM)	0.5 µg/mL (≈ 1.23 µM)	0.063 µg/mL (≈ 0.155 µM)	≤ 0.008 µg/mL	0.13 µg/mL (≈ 0.32 µM)	0.5 µg/mL (≈ 1.23 µM)	≤ 0.008 µg/mL	1 µg/mL (≈ 2.46 µM)	0.063 µg/mL (≈ 0.155 µM)	0.063 µg/mL (≈ 0.155 µM)	0.031 µg/mL (≈ 0.0763 µM)	Cmax ([21]; PO): 370 ± 110 ng/mL; half-life ([21]; PO): 3.93 ± 1.31 h; Tmax ([21]; PO): 0.51 ± 0.33 h; bioavailability [21]: 47.2%; half-life ([21]; IV): 1.92 ± 0.38 h; MIC [26]: ≤ 0.008 µg/mL; MIC [27]: 0.031 µg/mL (≈ 0.0763 µM); MIC [28]: ≤ 0.008 µg/mL; MIC [29]: 0.063 µg/mL (≈ 0.155 µM)
CC(C)(C)ON=C1CN(c2nc3c(cc2F)c(=O)c(C(=O)O)cn3C2CC2)CC1CN (stereo not shown) [Example 89, 7-(4-aminomethyl-3-t-butyloxyimino-pyrrolidin-1-yl)-1-cyclopropyl-6-fluoro-1,4-dihydro-4-oxo-1,8-naphthyridine-3-carboxylic acid]	0.5 µg/mL (≈ 1.16 µM)	0.25 µg/mL (≈ 0.579 µM)	0.063 µg/mL (≈ 0.146 µM)	0.063 µg/mL (≈ 0.146 µM)	0.016 µg/mL (≈ 0.0371 µM)	≤ 0.008 µg/mL	≤ 0.008 µg/mL	≤ 0.008 µg/mL	1 µg/mL (≈ 2.32 µM)	0.13 µg/mL (≈ 0.301 µM)	2 µg/mL (≈ 4.64 µM)	0.13 µg/mL (≈ 0.301 µM)	≤ 0.008 µg/mL	0.031 µg/mL (≈ 0.0718 µM)	2 µg/mL (≈ 4.64 µM)	0.016 µg/mL (≈ 0.0371 µM)	0.5 µg/mL (≈ 1.16 µM)	0.13 µg/mL (≈ 0.301 µM)	0.25 µg/mL (≈ 0.579 µM)	0.13 µg/mL (≈ 0.301 µM)	Cmax ([21]; PO): 4890 ± 2230 ng/mL; half-life ([21]; PO): 6.69 ± 2.78 h; Tmax ([21]; PO): 2.18 ± 0.77 h; bioavailability [21]: > 100%; half-life ([21]; IV): 2.29 ± 1.13 h; MIC [26]: ≤ 0.008 µg/mL; MIC [27]: 0.063 µg/mL (≈ 0.146 µM); MIC [28]: 0.016 µg/mL (≈ 0.0371 µM); MIC [29]: 0.25 µg/mL (≈ 0.579 µM)
CC(C)ON=C1CN(c2nc3c(cc2F)c(=O)c(C(=O)O)cn3C2CC2)CC1CN (stereo not shown) [Example 97]	0.25 µg/mL (≈ 0.599 µM)	0.13 µg/mL (≈ 0.311 µM)	0.031 µg/mL (≈ 0.0743 µM)	0.031 µg/mL (≈ 0.0743 µM)	≤ 0.008 µg/mL	0.016 µg/mL (≈ 0.0383 µM)	≤ 0.008 µg/mL	≤ 0.008 µg/mL	2 µg/mL (≈ 4.79 µM)	0.063 µg/mL (≈ 0.151 µM)	1 µg/mL (≈ 2.4 µM)	0.13 µg/mL (≈ 0.311 µM)	≤ 0.008 µg/mL	0.016 µg/mL (≈ 0.0383 µM)	1 µg/mL (≈ 2.4 µM)	≤ 0.008 µg/mL	1 µg/mL (≈ 2.4 µM)	0.063 µg/mL (≈ 0.151 µM)	0.13 µg/mL (≈ 0.311 µM)	0.063 µg/mL (≈ 0.151 µM)	MIC [26]: ≤ 0.008 µg/mL; MIC [27]: 0.063 µg/mL (≈ 0.151 µM); MIC [28]: ≤ 0.008 µg/mL; MIC [29]: 0.063 µg/mL (≈ 0.151 µM)
